What was measured:
COX I = molecular target: T1, COX I (Ovis aries, UniProt P05979); assay: Purified cyclooxygenase (COX) inhibition; assay type: biochemical, ram; conditions: arachidonic acid 100 μM, 2.0 min, 37° C.
T1 construct: The COX was purified from ram seminal vesicles; from tissue; host or cells: ram seminal vesicles
T1 sequence (P05979 25-600): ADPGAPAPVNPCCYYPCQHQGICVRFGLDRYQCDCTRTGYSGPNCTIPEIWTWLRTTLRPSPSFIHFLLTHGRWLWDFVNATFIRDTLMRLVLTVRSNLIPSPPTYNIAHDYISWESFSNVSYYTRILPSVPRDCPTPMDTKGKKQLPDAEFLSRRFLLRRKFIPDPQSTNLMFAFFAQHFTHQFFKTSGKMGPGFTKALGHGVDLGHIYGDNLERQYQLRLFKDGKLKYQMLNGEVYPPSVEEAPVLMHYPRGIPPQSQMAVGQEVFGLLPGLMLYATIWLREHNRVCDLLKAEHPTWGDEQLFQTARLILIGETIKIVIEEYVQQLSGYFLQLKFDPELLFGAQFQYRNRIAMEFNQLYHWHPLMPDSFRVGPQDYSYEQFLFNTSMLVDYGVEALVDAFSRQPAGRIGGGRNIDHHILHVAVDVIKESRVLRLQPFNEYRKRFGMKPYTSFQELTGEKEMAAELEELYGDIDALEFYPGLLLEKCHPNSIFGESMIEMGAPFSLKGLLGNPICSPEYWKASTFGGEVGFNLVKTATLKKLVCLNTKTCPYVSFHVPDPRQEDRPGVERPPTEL
Method: COX catalyzes the formation of prostaglandins and thromboxane by the oxidative metabolism of arachidonic acid. The compound of Example 1 of this invention, as well as a positive control, (sulindac sulfide) were evaluated to determine whether they inhibited purified cyclooxygenase Type I (see Table 1 below).
The compounds useful in the practice of this invention were evaluated for inhibitory effects on purified COX. The COX was purified from ram seminal vesicles, as described by Boopathy, R. and Balasubramanian, J., 239:371-377, 1988. COX activity was assayed as described by Evans, A. T., et al., “Actions of Cannabis Constituents on Enzymes Of Arachidonate Metabolism Anti-Inflammatory Potential,” Biochem. Pharmacol., 36:2035-2037, 1987. Briefly, purified COX was incubated with arachidonic acid (100 μM) for 2.0 min at 37° C. in the presence or absence of test compounds. The assay was terminated by the addition of TCA, and COX activity was determined by absorbance at 530 nm.

PKG [1] = assay: PKG activity assay on lysates of drug-treated SW480 colon cancer cells (32P phosphorylation of PDE5/GST substrate); assay type: cell-based, human; conditions: SW480 cells treated 48 hrs; exisulind 200, 400, 600 μM, E4021 0.1, 1, 10 μM; assay with and without added cGMP
Method: A compound that inhibits all these types of PDE is desirable, accordingly. Below, we provide examples of such PDE-inhibiting compounds.
SW 480 is known to contain the APC mutation. About 5 million SW480 cells in RPMI 5% serum are added to each of 8 dishes:
2-10 cm dishes - - - 30 μL DMSO vehicle control (without drug),
3-10 cm dishes - - - 200 μM, 400 μM, 600 μM exisulind in DMSO, and
The dishes are incubated for 48 hrs at 37° C. in 5% CO2 incubator.
The liquid media are aspirated from the dishes (the cells will attach themselves to the dishes). The attached cells are washed in each dish with cold PBS, and 200 μL cell lysis buffer (i.e., 50 mM Tris-HCl, 1% NP-40, 150 mM NaCl, 1 mM EDTA, 1 mM Na3VO4, 1 mM NaF, 500 μM IBMX with proteinase inhibitors) is added to each dish. Immediately after the cell lysis buffer is added, the lysed cells are collected by scraping the cells off each dish. The cell lysate from each dish is transferred to a microfuge tube, and the microfuge tubes are incubated at 4° C. for 15 minutes while gently agitating the microfuge tubes to allow the cells to lyse completely. […]
For each control or drug cell lysate sample to be evaluated, the reaction is started by adding phosphorylation buffer containing 10 μCi ^32P-γ-ATP solution (200 μM ATP, 4.5 mM MgCl; 5 mM KH2PO4; 5 mM K2HPO4;) to each mixture. […]

PKG [2] = assay: PKG activity assay on lysates of drug-treated HCT116 colon cancer cells; assay type: cell-based, human; conditions: HCT116 cells (β-catenin mutation, no APC mutation), same procedure as SW480
Text: HCT116 is known to contain the β-catenin mutation, but is known not to contain the APC mutation.
The same procedure is used to grow the HCT116 cells as is used in the SW480 procedure described above. In this experiment, only exisulind and controls were used.

PKG [3] = assay: Western blot of PKG protein in SW480 cells; assay type: cell-based, human; conditions: 48 hours, vs vehicle 0.1% DMSO
Method: (§1) SW480 cells treated with exisulind as described previously are harvested from the microfuge tubes by rinsing once with ice-cold PBS. The cells are lysed by modified RIPA buffer for 15 minutes with agitation. The cell lysate is spun down in a cold room. The supernatants are transferred to fresh microcentrifuge tubes immediately after spinning. BioRad DC Protein Assay (Temecula, Calif.) is performed to determine the protein concentrations in samples. The samples are normalized for protein concentration, as described above.
(§2) 50 μg of each sample is loaded to 10% SDS gel. SDS-PAGE is performed, and the proteins then are transferred to a nitrocellulose membrane. The blotted nitrocellulose membrane are blocked in freshly prepared TBST containing 5% nonfat dry milk for one hour at room temperature with constant agitation.
A goat-anti-PKG primary antibody is diluted to the recommended concentration/dilution in fresh TBST/5% nonfat dry milk. The nitrocellulose membrane is placed in the primary antibody solution and incubated one hour at room temperature with agitation. The nitrocellulose membrane is washed three times for ten minutes each with TBST. The nitrocellulose membrane is incubated in a solution containing a secondary POD conjugated rabbit anti-goat antibody for 1 hour at room temperature with agitation. The nitrocellulose membrane is washed three times for ten minutes each time with TBST. […]

β-catenin = assay: Western blot of β-catenin in SW480 cells; assay type: cell-based, human
Method: as §1, §2
SW480 cells were treated with exisulind or vehicle (0.1% DMSO) for 48 hours. 50 μg supernatant of each cell lysates were loaded to 10% SDS-gel and blotted to nitrocellulose membrane, and the membrane was probed with rabbit-anti-β-catenin and rabbit anti-PKG antibodies.
This observation was made by culturing SW480 cells with either 200, 400 or600 μM exisulind or vehicle (0.1% DMSO). The cells are harvested 48 hours post treatment and processed for immunoblotting. Immuno-reactive protein can be detected by Western blot. […]

GSK3β = assay: Western blot of GSK3β-phospho-ser9 in SW480 cells; assay type: cell-based, human; conditions: various concentrations, 48 hours, vs 0 concentration
Method: (§3) 50 μg protein/lane were analyzed by Western blot analysis using specific anti-PKG1β and anti-GSK3β-phospho-ser9 antibodies.

PKG1β = assay: Western blot of PKG1β in SW480 cells; assay type: cell-based, human; conditions: various concentrations, 48 hours
Method: as §3

[4] = molecular target: T2, GST-cGB-PDE5 fusion protein (Homo sapiens, UniProt O76074); assay: cGMP binding assay with GST-cGB-PDE5 fusion protein; conditions: 3H-cGMP 2 μM, 22° C., 1 hour
T2 construct: made in house; host or cells: E. coli BL21 (DE3)
Method: 5′-3′, Inc. kits for total RNA followed by oligo (dT) column purification of mRNA are used with HT-29 cells. […] It is then cloned into pGEX-5X-3 glutathione-S-transferase (GST) fusion vector (Pharmacia Biotech) with tac promoter, and EcoRI and XhoI cut sites. The fusion vector is then transfected into E. Coli BL21 (DE3) bacteria (Invitrogen). The transfected BL21 bacteria is grown to log phase, and then IPTG is added as an inducer. The induction is carried at 20° C. for 24 hrs. The bacteria are harvested and lysed. The soluble cell lysate is incubated with GSH conjugated Sepharose 4B (GSH-Sepharose 4B). The GST-cGB-PDE5 fusion protein can bind to the GSH-Sepharose beads, and the other proteins are washed off from beads with excessive cold PBS.
Then, the mixture is transferred to Brandel MB-24 cell harvester with GF/B as the filter membrane followed by 2 washes with 10 mL of cold 5 mM potassium buffer( pH 6.8). The membranes are then cut out and transferred to scintillation vials followed by the addition of 1 mL of H2O and 6 mL of Ready Safe™ liquid scintillation cocktail to each vial. The vials are counted on a Beckman LS 6500 scintillation counter.
The quenching by filter membrane or other debris are also calibrated.

T2 sequence (O76074 46-539 limits assumed): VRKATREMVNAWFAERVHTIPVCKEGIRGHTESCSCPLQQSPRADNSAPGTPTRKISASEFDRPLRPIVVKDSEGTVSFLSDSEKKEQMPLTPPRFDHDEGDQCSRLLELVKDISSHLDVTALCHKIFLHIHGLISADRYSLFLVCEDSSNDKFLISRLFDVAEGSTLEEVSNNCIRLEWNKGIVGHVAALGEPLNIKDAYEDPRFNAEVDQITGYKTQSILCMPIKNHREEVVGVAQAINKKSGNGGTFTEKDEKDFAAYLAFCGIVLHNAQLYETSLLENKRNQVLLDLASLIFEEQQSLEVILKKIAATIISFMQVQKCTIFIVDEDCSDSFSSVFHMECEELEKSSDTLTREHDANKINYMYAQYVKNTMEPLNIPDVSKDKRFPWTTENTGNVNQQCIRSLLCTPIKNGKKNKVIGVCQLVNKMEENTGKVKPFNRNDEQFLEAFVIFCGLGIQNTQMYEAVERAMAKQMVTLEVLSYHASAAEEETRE

Structure (SMILES)	inhibition at 100 µM (COX I) [%]	PKG activity relative to control (PKG [1])	PKG activation relative to controls (PKG [2])	PKG protein level by Western blot (PKG [3])	reduction of β-catenin expression compared to control (β-catenin; SW480 cells, 200, 400 or 600 μM, harvested 48 hours post treatment) [%]	β-catenin level by Western blot (β-catenin; SW480 cells, 48 hours, vs vehicle 0.1% DMSO)	GSK3β inactivation by Ser9 phosphorylation (GSK3β)	PKG1 induction (PKG1β)	competition with cGMP for the cGMP binding sites [4]
CC1=C(CC(=O)NCc2ccccc2)c2cc(F)ccc2/C1=C\c1ccncc1 [Example 1, (Z)-5-Fluoro-2-Methyl-(4-Pyridinylidene)-3-(N-Benzyl)-Indenylacetamide]	< 25	–	–	–	–	–	–	–	–
CC1=C(CC(=O)O)c2cc(F)ccc2/C1=C\c1ccc(S(C)(=O)=O)cc1 [exisulind]	–	causes PKG activity to increase in a dose-dependent manner	PKG activation occurred	increase of PKG	50	drop of β-catenin	inactivated in vivo by phosphorylation of its Ser9	PKG1 induction in a dose-dependent manner	None of the PDE5 inhibitors showed any competition with cGMP in binding
